Read-outs that look alike come from different tables or passages of the source.
How the values were obtained:
non-expressing oocytes = type: cell-based, Xenopus laevis; settings: total [3H]CQ transport; for Uptake of [3H]CQ (% non-expressing oocyte control), trans-stimulation: non-expressing oocytes, normalised to the oocyte type control; for Uptake of [3H]CQ (% PfCRTDd2 control), trans-stimulation, non-expressing oocytes: mean ± SEM, SEM
Summary of the method: (§1)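 Oocytes (ten per treatment, ≥4 independent frogs/days) were preloaded by injecting VF-6 in 25 nL ND96 at pH 5.0, 5.5, 6.0 or 7.0, or Na^+-free choline buffer, then uptake run 1.5 h, 27.5 °C, ND96 pH 5.5 by default. Internal concentrations assumed ~400 nL oocyte volume.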

PfCRT = test: Test of solutes as potential co-substrates for influx of VF-6 via PfCRT into the oocyte; type: cell-based, Plasmodium falciparum; set-up: key: X: Compounds that have been tested as potential co-substrates but are not required for influx of VF-6 via PfCRT into the oocyte; settings: X = tested
PfCRT^3D7 = PfCRT^3D7 (Plasmodium falciparum, UniProt Q8IBZ9); test: cell-based; type: cell-based; settings: for Uptake of [3H]CQ (% PfCRT3D7 control), trans-stimulation / PfCRT-mediated [3H]CQ transport, trans-stimulation (% PfCRT3D7 control): PfCRT3D7 oocytes; for Uptake of [3H]CQ (% PfCRT3D7 control), trans-stimulation / Uptake of [3H]CQ (% PfCRTDd2 control), trans-stimulation, PfCRT3D7: total [3H]CQ transport; for Uptake of [3H]CQ (% PfCRT3D7 control), trans-stimulation: normalised to the oocyte type control; for PfCRT-mediated [3H]CQ transport, trans-stimulation (% PfCRT3D7 control): normalised to oocyte type control; for Uptake of [3H]CQ (% PfCRTDd2 control), trans-stimulation, PfCRT3D7: mean ± SEM, SEM
Sequence of PfCRT^3D7 (Q8IBZ9 59-398): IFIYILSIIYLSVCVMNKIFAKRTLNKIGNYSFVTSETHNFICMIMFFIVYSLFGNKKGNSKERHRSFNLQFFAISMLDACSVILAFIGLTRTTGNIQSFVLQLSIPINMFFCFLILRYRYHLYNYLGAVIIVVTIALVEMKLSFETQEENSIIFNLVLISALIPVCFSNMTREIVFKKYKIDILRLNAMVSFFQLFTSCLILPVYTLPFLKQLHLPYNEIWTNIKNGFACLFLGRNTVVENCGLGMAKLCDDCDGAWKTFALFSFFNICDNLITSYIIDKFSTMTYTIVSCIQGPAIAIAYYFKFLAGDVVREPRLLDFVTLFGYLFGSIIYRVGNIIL
Summary of the method: as §1

PfNT1 = biological target: T1, PfNT1 (Plasmodium falciparum, UniProt Q8IDM6); test: cell-based; type: cell-based; settings: total [3H]CQ transport; for Uptake of [3H]CQ (% PfNT1 control), trans-stimulation: PfNT1 oocytes, normalised to the oocyte type control; for Uptake of [3H]CQ (% PfCRTDd2 control), trans-stimulation, PfNT1: mean ± SEM, SEM
T1 construct: expressed in transfected cells; host or cells: Xenopus laevis oocytes (stage V-VI), cRNA-injected
T1 sequence (Q8IDM6 whole entry): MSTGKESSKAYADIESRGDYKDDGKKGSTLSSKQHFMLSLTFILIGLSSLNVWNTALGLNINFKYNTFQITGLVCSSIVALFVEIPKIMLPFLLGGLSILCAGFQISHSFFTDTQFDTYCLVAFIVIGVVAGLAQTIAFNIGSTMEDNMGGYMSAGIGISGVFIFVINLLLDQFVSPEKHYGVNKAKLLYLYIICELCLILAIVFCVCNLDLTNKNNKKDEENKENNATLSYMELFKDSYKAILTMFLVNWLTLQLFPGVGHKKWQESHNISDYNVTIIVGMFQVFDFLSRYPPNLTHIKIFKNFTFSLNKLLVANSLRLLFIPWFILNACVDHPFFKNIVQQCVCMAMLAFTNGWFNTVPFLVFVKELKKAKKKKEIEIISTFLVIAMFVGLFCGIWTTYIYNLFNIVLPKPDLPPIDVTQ
Summary of the method: as §1

PfCRT^Dd2 = PfCRT^Dd2 (Plasmodium falciparum, UniProt Q9N623, A220S/I356T/K76T/M74I/N326S/N75E/Q271E/R371I); test: cell-based; type: cell-based; settings: for Uptake of [3H]CQ (% PfCRTDd2 control), trans-stimulation / PfCRT-mediated [3H]CQ transport, trans-stimulation (% PfCRTDd2 control): PfCRTDd2 oocytes; for Uptake of [3H]CQ (% PfCRTDd2 control), trans-stimulation / Uptake of [3H]CQ (% PfCRTDd2 control), trans-stimulation, PfCRTDd2: total [3H]CQ transport; for Uptake of [3H]CQ (% PfCRTDd2 control), trans-stimulation: normalised to the oocyte type control; for PfCRT-mediated [3H]CQ transport, trans-stimulation (% PfCRTDd2 control): normalised to oocyte type control; for Uptake of [3H]CQ (% PfCRTDd2 control), trans-stimulation, PfCRTDd2 / [3H]CQ transport (% PfCRTDd2 control), trans-stimulation, PfCRTDd2: mean ± SEM, SEM; for [3H]CQ transport (% PfCRTDd2 control), trans-stimulation, PfCRTDd2: PfCRT-mediated component (background subtracted)
Sequence of PfCRT^Dd2 (Q9N623 whole entry A220S/I356T/K76T/M74I/N326S/N75E/Q271E/R371I): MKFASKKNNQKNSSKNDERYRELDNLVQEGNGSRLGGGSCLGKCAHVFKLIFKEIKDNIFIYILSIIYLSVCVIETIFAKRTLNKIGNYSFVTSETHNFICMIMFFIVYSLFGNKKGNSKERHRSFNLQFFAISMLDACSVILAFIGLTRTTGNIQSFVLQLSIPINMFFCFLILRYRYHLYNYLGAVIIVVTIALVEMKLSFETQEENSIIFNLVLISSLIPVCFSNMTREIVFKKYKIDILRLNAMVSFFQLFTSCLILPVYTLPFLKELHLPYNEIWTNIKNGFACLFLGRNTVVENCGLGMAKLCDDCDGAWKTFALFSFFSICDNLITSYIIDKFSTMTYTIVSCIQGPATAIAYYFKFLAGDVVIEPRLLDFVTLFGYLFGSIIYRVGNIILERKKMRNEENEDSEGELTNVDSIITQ
Summary of the method: as §1

PfCRT^Ecu1110 = PfCRT^Ecu1110 (Plasmodium falciparum, UniProt Q9N623, A220S/I356L/K76T/N326D); test: cell-based; type: cell-based; settings: for Uptake of [3H]CQ (% PfCRTEcu1110 control), trans-stimulation / PfCRT-mediated [3H]CQ transport, trans-stimulation (% PfCRTEcu1110 control): PfCRTEcu1110 oocytes; for Uptake of [3H]CQ (% PfCRTEcu1110 control), trans-stimulation / Uptake of [3H]CQ (% PfCRTDd2 control), trans-stimulation, PfCRTEcu1110: total [3H]CQ transport; for Uptake of [3H]CQ (% PfCRTEcu1110 control), trans-stimulation: normalised to the oocyte type control; for PfCRT-mediated [3H]CQ transport, trans-stimulation (% PfCRTEcu1110 control): normalised to oocyte type control; for Uptake of [3H]CQ (% PfCRTDd2 control), trans-stimulation, PfCRTEcu1110 / [3H]CQ transport (% PfCRTDd2 control), trans-stimulation, PfCRTEcu1110: mean ± SEM, SEM; for [3H]CQ transport (% PfCRTDd2 control), trans-stimulation, PfCRTEcu1110: PfCRT-mediated component (background subtracted), sheet title says normalised to PfCRTDd2 control
Sequence of PfCRT^Ecu1110 (Q9N623 whole entry A220S/I356L/K76T/N326D): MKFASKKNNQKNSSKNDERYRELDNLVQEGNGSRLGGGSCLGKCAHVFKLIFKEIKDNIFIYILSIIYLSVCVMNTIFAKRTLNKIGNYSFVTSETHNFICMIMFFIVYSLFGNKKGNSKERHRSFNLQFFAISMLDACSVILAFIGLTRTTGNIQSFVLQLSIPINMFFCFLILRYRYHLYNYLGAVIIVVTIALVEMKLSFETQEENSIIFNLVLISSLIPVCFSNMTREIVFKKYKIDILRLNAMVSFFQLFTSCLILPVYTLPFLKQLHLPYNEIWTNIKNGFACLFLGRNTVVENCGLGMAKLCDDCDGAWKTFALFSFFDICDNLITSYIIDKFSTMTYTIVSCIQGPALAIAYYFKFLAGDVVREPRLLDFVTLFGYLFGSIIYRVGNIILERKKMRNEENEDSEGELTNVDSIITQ
Summary of the method: as §1

[1] = [test solute]i = 45 mM (30 mM for some solutes due to solubility)
[2] = [test solute]i = 5 mM (intracellular)
[3] = [test solute]i = 45 mM (intracellular; 30 mM for some solutes due to solubility)
[4] = [test solute]i = 5 mM (injected)

NC(=O)C[C@H](N)C(=O)O [L-asparagine]
Uptake of [3H]CQ (% non-expressing oocyte control), trans-stimulation (non-expressing oocytes; [test solute]i = 5 mM): 100 ± 3.7 % non-expressing oocyte control | Uptake of [3H]CQ (% non-expressing oocyte control), trans-stimulation (non-expressing oocytes; [1]): 99 ± 3.0 % non-expressing oocyte control | Uptake of [3H]CQ (% PfCRTDd2 control), trans-stimulation, non-expressing oocytes (non-expressing oocytes; [2]): 3.2 ± 0.02 % PfCRTDd2 control | Uptake of [3H]CQ (% PfCRTDd2 control), trans-stimulation, non-expressing oocytes (non-expressing oocytes; [3]): 2.4 ± 0.02 % PfCRTDd2 control | Tested as potential co-substrate but not required for influx of VF-6 via PfCRT into the oocyte (PfCRT): X | Uptake of [3H]CQ (% PfCRT3D7 control), trans-stimulation (PfCRT^3D7; [test solute]i = 5 mM): 100 ± 4.2 % PfCRT3D7 control | Uptake of [3H]CQ (% PfCRT3D7 control), trans-stimulation (PfCRT^3D7; [1]): 100 ± 3.7 % PfCRT3D7 control | PfCRT-mediated [3H]CQ transport, trans-stimulation (% PfCRT3D7 control) (PfCRT^3D7; [2]): 98 ± 3.6 % PfCRT3D7 control | PfCRT-mediated [3H]CQ transport, trans-stimulation (% PfCRT3D7 control) (PfCRT^3D7; [3]): 98 ± 2.8 % PfCRT3D7 control | Uptake of [3H]CQ (% PfCRTDd2 control), trans-stimulation, PfCRT3D7 (PfCRT^3D7; [2]): 3.3 ± 0.01 % PfCRTDd2 control | Uptake of [3H]CQ (% PfCRTDd2 control), trans-stimulation, PfCRT3D7 (PfCRT^3D7; [3]): 3.3 ± 0.04 % PfCRTDd2 control | Uptake of [3H]CQ (% PfNT1 control), trans-stimulation (PfNT1; [test solute]i = 5 mM): 100 ± 2.5 % PfNT1 control | Uptake of [3H]CQ (% PfNT1 control), trans-stimulation (PfNT1; [1]): 99 ± 3.6 % PfNT1 control | Uptake of [3H]CQ (% PfCRTDd2 control), trans-stimulation, PfNT1 (PfNT1; [2]): 2.8 ± 0.04 % PfCRTDd2 control | Uptake of [3H]CQ (% PfCRTDd2 control), trans-stimulation, PfNT1 (PfNT1; [3]): 3.1 ± 0.06 % PfCRTDd2 control | Uptake of [3H]CQ (% PfCRTDd2 control), trans-stimulation (PfCRT^Dd2; [test solute]i = 5 mM): 101 ± 3.1 % PfCRTDd2 control | Uptake of [3H]CQ (% PfCRTDd2 control), trans-stimulation (PfCRT^Dd2; [1]): 98 ± 2.4 % PfCRTDd2 control | PfCRT-mediated [3H]CQ transport, trans-stimulation (% PfCRTDd2 control) (PfCRT^Dd2; [2]): 99 ± 2.4 % PfCRTDd2 control | PfCRT-mediated [3H]CQ transport, trans-stimulation (% PfCRTDd2 control) (PfCRT^Dd2; [3]): 96 ± 3.2 % PfCRTDd2 control | Uptake of [3H]CQ (% PfCRTDd2 control), trans-stimulation, PfCRTDd2 (PfCRT^Dd2; [2]): 101 ± 3.1 % PfCRTDd2 control | Uptake of [3H]CQ (% PfCRTDd2 control), trans-stimulation, PfCRTDd2 (PfCRT^Dd2; [3]): 98 ± 2.4 % PfCRTDd2 control | [3H]CQ transport (% PfCRTDd2 control), trans-stimulation, PfCRTDd2 (PfCRT^Dd2; [4]): 99 ± 2.4 % PfCRTDd2 control | [3H]CQ transport (% PfCRTDd2 control), trans-stimulation, PfCRTDd2 (PfCRT^Dd2; [1]): 96 ± 3.2 % PfCRTDd2 control | Uptake of [3H]CQ (% PfCRTEcu1110 control), trans-stimulation (PfCRT^Ecu1110; [test solute]i = 5 mM): 98 ± 4.1 % PfCRTEcu1110 control | Uptake of [3H]CQ (% PfCRTEcu1110 control), trans-stimulation (PfCRT^Ecu1110; [1]): 98 ± 3.2 % PfCRTEcu1110 control | PfCRT-mediated [3H]CQ transport, trans-stimulation (% PfCRTEcu1110 control) (PfCRT^Ecu1110; [2]): 96 ± 2.1 % PfCRTEcu1110 control | PfCRT-mediated [3H]CQ transport, trans-stimulation (% PfCRTEcu1110 control) (PfCRT^Ecu1110; [3]): 96 ± 2.7 % PfCRTEcu1110 control | Uptake of [3H]CQ (% PfCRTDd2 control), trans-stimulation, PfCRTEcu1110 (PfCRT^Ecu1110; [2]): 35 ± 1.8 % PfCRTDd2 control | Uptake of [3H]CQ (% PfCRTDd2 control), trans-stimulation, PfCRTEcu1110 (PfCRT^Ecu1110; [3]): 35 ± 2.1 % PfCRTDd2 control | [3H]CQ transport (% PfCRTDd2 control), trans-stimulation, PfCRTEcu1110 (PfCRT^Ecu1110; [4]): 32 ± 1.6 % PfCRTEcu1110 control | [3H]CQ transport (% PfCRTDd2 control), trans-stimulation, PfCRTEcu1110 (PfCRT^Ecu1110; [1]): 32 ± 2.1 % PfCRTEcu1110 control

— publication PMC7413254 (Nature Communications, 2020)
